Values of other authors, collected in patent EP3021668B1, “EMULSIFIABLE CONCENTRATE COMPRISING PESTICIDE, ALKYL LACTATE, FATTY AMIDE AND ACETOPHENONE” (BASF SE, priority 2013, dated 2015).

Columns and labels:
[1] = pure solvents; according to the Annex III of European Union Directive 67/548/EEC
[2] = at 20 °C

| SMILES | eye toxicity classification [1] | soluble in water [2] |
| --- | --- | --- |
| CC(=O)c1ccccc1 [acetophenone] | R36 "Irritating to eyes" |  |
| COC(=O)N(OC)c1ccccc1COc1ccn(-c2ccc(Cl)cc2)n1 [pyraclostrobin] |  | about 2 mg/l |
| CCCC[C@H](CC)COC(=O)C(C)O (stereo partly drawn) [(S)-2-ethylhexyl lactate] | R36 "Irritating to eyes" |  |
| Cn1cc(C(=O)Nc2ccccc2-c2cc(F)c(F)c(F)c2)c(C(F)F)n1 [fluxapyroxad] |  | about 4 mg/l |
